Results on 27 compounds are retold here after patent US11311520B2, “Substituted dihydroimidazopyridinediones as MKNK1 and MKNK2 inhibitors” (Bayer Pharma Aktiengesellschaft, priority 2017, dated 2022).

In general, IC50 refers to the concentration that inhibits the measured activity by half. Read a low IC50 as inhibition by little substance.

For the assay, the target named is human full-length MKNK1 (Homo sapiens (Human), UniProt Q9BUB5, T344D). Briefly: MKNK1 kinase high ATP assay (TR-FRET). Type of assay: biochemical. The note with it: 2 mM ATP, 15 min preincubation with enzyme, GST-MKNK1 (T344D). Summed up: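 GST-tagged full-length human MKNK1 (1-424, T344D, baculovirus-expressed) preincubated 15 min at 22 °C with compound, then reacted 30 min at 22 °C with 2 mM ATP and 0.06 μM biotinylated peptide (final) in HEPES pH 7.5. Phospho-substrate by TR-FRET (665/622 nm ratio), normalised to no-inhibitor and no-enzyme controls.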
human full-length MKNK1, sequence (Q9BUB5 other isoform, or with tags, fused parts or gaps T344D): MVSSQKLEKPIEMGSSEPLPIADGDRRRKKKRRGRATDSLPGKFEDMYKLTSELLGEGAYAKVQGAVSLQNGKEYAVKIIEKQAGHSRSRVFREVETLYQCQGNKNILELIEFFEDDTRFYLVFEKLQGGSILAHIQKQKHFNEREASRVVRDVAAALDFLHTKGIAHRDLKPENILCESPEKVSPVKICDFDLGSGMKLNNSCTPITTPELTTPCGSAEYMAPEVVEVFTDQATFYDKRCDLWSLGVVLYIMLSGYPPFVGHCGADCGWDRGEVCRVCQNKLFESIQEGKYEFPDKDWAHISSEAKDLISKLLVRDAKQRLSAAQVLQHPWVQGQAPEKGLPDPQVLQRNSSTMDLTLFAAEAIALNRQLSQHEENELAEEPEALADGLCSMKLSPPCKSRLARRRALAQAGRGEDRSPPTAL
On the technique in general: Time-resolved FRET reads energy transfer from a long-lived donor to a nearby acceptor.

`Cc1cc(Nc2ncnc3ccc(F)cc23)c(=O)n2c1C(=O)NC21CCC1` [Example 171, 6′-[(6-fluoroquinazolin-4-yl)amino]-8′-methyl-2′H-spiro[cyclobutane-1,3′-imidazo[1,5-a]pyridine]-1′,5′-dione]: the IC50 is 6 nM.

The compound `Cc1cc(Nc2ncnc3sc(C(=O)N4CCN(C)CC4)cc23)c(=O)n2c1C(=O)NC21CCCCC1` [Example 12, 8′-Methyl-6′-({6-[(4-methylpiperazin-1-yl)carbonyl]thieno[2,3-d]pyrimidin-4-yl}amino)-2′H-spiro[cyclohexane-1,3′-imidazo[1,5-a]pyridine]-1′,5′-dione] registered an IC50 of 27.2 nM.

In the case of `Cc1cc(Nc2ncnc3sc(C(N)=O)c(C)c23)c(=O)n2c1C(=O)NC21CCCC1` [Example 107, 5-Methyl-4-[(8′-methyl-1′,5′-dioxo-1′,5′-dihydro-2′H-spiro[cyclopentane-1,3′-imidazo[1,5-a]pyridin]-6′-yl)amino]thieno[2,3-d]pyrimidine-6-carboxamide], half-maximal inhibition (IC50) required 111 nM. Compared with the last compound, the IC50 is about 4.1-fold higher.

Regarding `Cc1cc(Nc2ncnc3sc(C(=O)O)cc23)c(=O)n2c1C(=O)NC2(C)C` [Example 136, 4-[(3,3,8-Trimethyl-1,5-dioxo-1,2,3,5-tetrahydroimidazo[1,5-a]pyridin-6-yl)amino]thieno[2,3-d]pyrimidine-6-carboxylic acid], the IC50 was found to be 122 nM.

`Cc1cc(Nc2ncnc3cc(F)ccc23)c(=O)n2c1C(=O)NC21CCCCC1` [Example 112, 6′-[(7-Fluoroquinazolin-4-yl)amino]-8′-methyl-2′H-spiro[cyclohexane-1,3′-imidazo[1,5-a]pyridine]-1′,5′-dione] had a half-inhibitory concentration (IC50) of 25.3 nM.

Turning to `Cc1cc(Nc2ncnc3sc(C(=O)N4CC[C@@H](N(C)C)C4)cc23)c(=O)n2c1C(=O)NC2(C)C` [Example 142, 6-[(6-{[(3R)-3-(Dimethylamino)pyrrolidin-1-yl]carbonyl}thieno[2,3-d]pyrimidin-4-yl)amino]-3,3,8-trimethyl-2,3-dihydroimidazo[1,5-a]pyridine-1,5-dione], 20 nM corresponded to half-maximal inhibition (IC50).

`Cc1cc(Nc2ncnc3sc(C(=O)N4CC[C@@H](N(C)C)C4)cc23)c(=O)n2c1C(=O)NC21CCC(F)(F)CC1` [Example 86, 6′-[(6-{[(3R)-3-(Dimethylamino)pyrrolidin-1-yl]carbonyl}thieno[2,3-d]pyrimidin-4-yl)amino]-4,4-difluoro-8′-methyl-2′H-spiro[cyclohexane-1,3′-imidazo[1,5-a]pyridine]-1′,5′-dione] had an IC50 of 11.9 nM.

`Cc1cc(Nc2ncnc3c2ncn3CCO)c(=O)n2c1C(=O)NC21CCCCC1` [Example 44, 6′-{[9-(2-Hydroxyethyl)-9H-purin-6-yl]amino}-8′-methyl-2′H-spiro[cyclohexane-1,3′-imidazo[1,5-a]pyridine]-1′,5′-dione]: the midpoint of inhibition, the IC50, lay at 465 nM. This IC50 lies about 39-fold higher than the previous one.

In the case of `Cc1cc(Nc2ncnc3sc(C(=O)O)c(C)c23)c(=O)n2c1C(=O)NC2(C)C` [Example 145, 5-Methyl-4-[(3,3,8-trimethyl-1,5-dioxo-1,2,3,5-tetrahydroimidazo[1,5-a]pyridin-6-yl)amino]thieno[2,3-d]pyrimidine-6-carboxylic acid], half-maximal inhibition (IC50) was put at 115 nM.

In the case of `Cc1cc(Nc2ncnc3c2CN(C(=O)OC(C)(C)C)C3)c(=O)n2c1C(=O)NC21CCC(F)(F)CC1` [Example 104, tert-Butyl 4-[(4,4-difluoro-8′-methyl-1′,5′-dioxo-1′,5′-dihydro-2′H-spiro[cyclohexane-1,3′-imidazo[1,5-a]pyridin]-6′-yl)amino]-5,7-dihydro-6H-pyrrolo[3,4-d]pyrimidine-6-carboxylate], the midpoint of inhibition, the IC50, lay at 30.2 nM.

Take `Cc1cc(Nc2ncnc3sc(C(=O)N4CC(C#N)C4)cc23)c(=O)n2c1C(=O)NC2(C)C` [Example 141, 1-({4-[(3,3,8-Trimethyl-1,5-dioxo-1,2,3,5-tetrahydroimidazo[1,5-a]pyridin-6-yl)amino]thieno[2,3-d]pyrimidin-6-yl}carbonyl)azetidine-3-carbonitrile]: the IC50 was found to be 24.2 nM.

For the compound `Cc1cc(Nc2ncnc3ccc(Cl)cc23)c(=O)n2c1C(=O)NC21CCCC1` [Example 98, 6′-[(6-Chloroquinazolin-4-yl)amino]-8′-methyl-2′H-spiro[cyclopentane-1,3′-imidazo[1,5-a]pyridine]-1′,5′-dione], 7.6 nM corresponded to half-maximal inhibition (IC50). Compared with the last compound, the IC50 is about 3.2-fold lower.

With `Cc1cc(Nc2ncnc3sc(C(=O)N(C)CCN(C)C)c(C)c23)c(=O)n2c1C(=O)NC21CCCCC1` [Example 17, N-[2-(dimethylamino)ethyl]-N,5-dimethyl-4-[(8′-methyl-1′,5′-dioxo-1′,5′-dihydro-2′H-spiro[cyclohexane-1,3′-imidazo[1,5-a]pyridin]-6′-yl)amino]thieno[2,3-d]pyrimidine-6-carboxamide], the midpoint of inhibition, the IC50, lay at 40.3 nM.

In the case of `Cc1cc(Nc2ncnc3sccc23)c(=O)n2c1C(=O)NC21CCC1` [Example 149, 8′-Methyl-6′-(thieno[2,3-d]pyrimidin-4-ylamino)-2′H-spiro[cyclobutane-1,3′-imidazo[1,5-a]pyridine]-1′,5′-dione], the 50% inhibitory concentration (IC50) is 2.3 nM.

The compound `Cc1cc(Nc2ncnc3c(Cl)cc(Cl)cc23)c(=O)n2c1C(=O)NC21CCCCC1` [Example 110, 6′-[(6,8-Dichloroquinazolin-4-yl)amino]-8′-methyl-2′H-spiro[cyclohexane-1,3′-imidazo[1,5-a]pyridine]-1′,5′-dione] had a half-maximal inhibitory concentration (IC50) of 5580 nM.

As for `Cc1cc(Nc2ncnc3sc(C(=O)N(C)CCN(C)C)cc23)c(=O)n2c1C(=O)NC21CCCCC1` [Example 13, N-[2-(Dimethylamino)ethyl]-N-methyl-4-[(8′-methyl-1′,5′-dioxo-1′,5′-dihydro-2′H-spiro[cyclohexane-1,3′-imidazo[1,5-a]pyridin]-6′-yl)amino]thieno[2,3-d]pyrimidine-6-carboxamide], the IC50 was 5.2 nM. Against the preceding compound, the IC50 is about 1100-fold lower.

Turning to `Cc1cc(Nc2ncnc3sc(C(=O)NCCN(C)C)cc23)c(=O)n2c1C(=O)NC21CCC(F)(F)CC1` [Example 81, 4-[(4,4-Difluoro-8′-methyl-1′,5′-dioxo-1′,5′-dihydro-2′H-spiro[cyclohexane-1,3′-imidazo[1,5-a]pyridin]-6′-yl)amino]-N-[2-(dimethylamino)ethyl]thieno[2,3-d]pyrimidine-6-carboxamide], the IC50 was 5 nM.

On to `Cc1cc(Nc2ncnc3sc(C(=O)NCCN(C)C)cc23)c(=O)n2c1C(=O)NC21CCC1` [Example 151, N-[2-(Dimethylamino)ethyl]-4-[(8′-methyl-1′,5′-dioxo-1′,5′-dihydro-2′H-spiro[cyclobutane-1,3′-imidazo[1,5-a]pyridin]-6′-yl)amino]thieno[2,3-d]pyrimidine-6-carboxamide], for which the IC50 came to 4 nM.

Take `Cc1cc(Nc2ncnc3sc(C(=O)N4C[C@@H]5C[C@H]4CN5C)cc23)c(=O)n2c1C(=O)NC21CCCCC1` [Example 43, 8′-Methyl-6′-[(6-{[(1S,4S)-5-methyl-2,5-diazabicyclo[2.2.1]hept-2-yl]carbonyl}thieno[2,3-d]pyrimidin-4-yl)amino]-2′H-spiro[cyclohexane-1,3′-imidazo[1,5-a]pyridine]-1′,5′-dione]: the IC50 stood at 2.9 nM.

`Cc1cc(Nc2ncnc3cc(Cl)ccc23)c(=O)n2c1C(=O)NC21CS(=O)(=O)C1` [Example 181, 6-[(7-chloroquinazolin-4-yl)amino]-8-methyl-2H-spiro[imidazo[1,5-a]pyridine-3,3′-thietane]-1,5-dione 1′,1′-dioxide] registered an IC50 of 104 nM.

In turn, `Cc1cc(Nc2ncnc3[nH]ccc23)c(=O)n2c1C(=O)NC21CCCC1` [Example 55, 8′-Methyl-6′-(7H-pyrrolo[2,3-d]pyrimidin-4-ylamino)-2′H-spiro[cyclopentane-1,3′-imidazo[1,5-a]pyridine]-1′,5′-dione] returned a half-inhibitory concentration (IC50) of 0.3 nM.

On to `Cc1cc(Nc2ncnc3sc(C(=O)O)cc23)c(=O)n2c1C(=O)NC21CCC(F)(F)CC1` [Example 80, 4-[(4,4-Difluoro-8′-methyl-1′,5′-dioxo-1′,5′-dihydro-2′H-spiro[cyclohexane-1,3′-imidazo[1,5-a]pyridin]-6′-yl)amino]thieno[2,3-d]pyrimidine-6-carboxylic acid], for which the IC50 was found to be 126 nM.

In turn, `Cc1cc(Nc2ncnc3cccc(C)c23)c(=O)n2c1C(=O)NC21CCCC1` [Example 183, 8′-methyl-6′-[(5-methylquinazolin-4-yl)amino]-2′H-spiro[cyclopentane-1,3′-imidazo[1,5-a]pyridine]-1′,5′-dione] displayed an IC50 of 13 nM.

In turn, `Cc1cc(Nc2ncnc3sc(C(=O)N4CC(NC(=O)OC(C)(C)C)C4)cc23)c(=O)n2c1C(=O)NC21CCCC1` [Example 62, tert-Butyl [1-({4-[(8′-methyl-1′,5′-dioxo-1′,5′-dihydro-2′H-spiro[cyclopentane-1,3′-imidazo[1,5-a]pyridin]-6′-yl)amino]thieno[2,3-d]pyrimidin-6-yl}carbonyl)azetidin-3-yl]carbamate] gave a 50% inhibitory concentration (IC50) of 4 nM.

As for `Cc1cc(Nc2ncnc3sccc23)c(=O)n2c1C(=O)NC21CCC(F)(F)CC1` [Example 89, 4,4-Difluoro-8′-methyl-6′-(thieno[2,3-d]pyrimidin-4-ylamino)-2′H-spiro[cyclohexane-1,3′-imidazo[1,5-a]pyridine]-1′,5′-dione], the IC50 came out at 12.8 nM.

With `Cc1cc(Nc2ncnc3sc(C(=O)NCCN(C)C)cc23)c(=O)n2c1C(=O)NC21CCC(O)(C(F)(F)F)CC1` (stereo not drawn) [Example 129, N-[2-(Dimethylamino)ethyl]-4-{[4-hydroxy-8′-methyl-1′,5′-dioxo-4-(trifluoromethyl)-1′,5′-dihydro-2′H-spiro[cyclohexane-1,3′-imidazo[1,5-a]pyridin]-6′-yl]amino}thieno[2,3-d]pyrimidine-6-carboxamide], 21 nM corresponded to half-maximal inhibition (IC50). This IC50 is about 1.6-fold higher than that of the compound before.

On to `Cc1cc(Nc2ncnc(N)n2)c(=O)n2c1C(=O)NC21CCC(O)(C(F)(F)F)CC1` (stereo not drawn) [Example 127, 6′-[(4-Amino-1,3,5-triazin-2-yl)amino]-4-hydroxy-8′-methyl-4-(trifluoromethyl)-2′H-spiro[cyclohexane-1,3′-imidazo[1,5-a]pyridine]-1′,5′-dione], for which the half-maximal inhibitory concentration (IC50) is 71.2 nM. This IC50 is about 3.4-fold higher than that of the compound before.
